From patent publication US9109048B2, “Inhibition of tumor growth” (priority 1998, dated 2015)
Values after ≈ are worked out from the molar mass of the structure shown. Values joined by “and” are separate entries in the source; they are usually repeats but may differ in a detail not shown here. Identical values can stand only once. Like-named read-outs stand apart in the source and are kept apart here. Square brackets hold non-standard residues; d marks the D form. Ends that are not written are not given here. Peptide text beside a SMILES is read from it. * marks the point of attachment. Trp(2-Pmc) = Cc1c(C)c(S(=O)(=O)c2[nH]c3ccccc3c2C[C@H](N)C(=O)O)c(C)c2c1OC(C)(C)CC2; Bip = N[C@@H](Cc1ccc(-c2ccccc2)cc1)C(=O)O; Fmoc = O=C(OCC1c2ccccc2-c2ccccc21)*; Acm = CC(=O)NC*

Experiments:
[1] = test system: Meth A cells (murine sarcoma cell line); test: Cytotoxicity on Meth A cells, MTT method; conditions: for Meth A IC 50: 4 h
Description: Peptide solutions (0.1 ml) were added and the plates incubated at 37° C. for 30 minutes, 4 hours or 24 hours. The cytotoxicity was measured using the MTT method (Mosmann et al., J. Immunol. (1986) 136, 2348-2357).
Cells in the growth phase were harvested and washed in fresh medium and injected subcutaneously into the abdominal region of the mice.
The cytotoxic effect of the peptides on different murine and human tumor cells were measured using the MTT method (Mosmann et al., J. Immunol. (1986) 136, 2348-2357).
MTT is a soluble tetrazolium salt yielding a yellow solution when prepared in media or salt solutions lacking phenol red. Dissolved MTT is converted to an insoluble purple formazan by cleavage of the tetrazolium ring by dehydrogenase enzymes. This water insoluble formazan can be solubilized using isopropanol or other solvents and the dissolved material is measured spectrophotometrically. The absorbance was measured as a function of concentration of converted dye.
Cells were maintained in […] medium containing 10% FBS, 1% L-glutamine and 0.1% penicillin and streptomycin. Cells to be used in the assay were grown to confluency, trypsinated and split to single cell suspension, counted and centrifuged at 1500 rpm for 10 min. […][…] of cell suspension was transferred to each well on a 96-well microtiter plate. The cells were stimulated by adding […] of various concentrations of peptides diluted with assay medium to each well. The final concentrations of peptide were for example: 5, 10, 20, 40, 60, 80, 100, and 200 mg/ml. […] As a negative control only medium was added to the cells, and as a positive control (100% killing) 1% triton X-100 was added. Following an incubation period of 4 h., 20 ml MTT dissolved in PBS at a concentration of 5 mg/ml was added to each well, and the plate was incubated further for 2 h. 130 ml of the supernatant were then removed and […] acid alcohol (0.04-0.1 N HCl in isopropanol) added to each well to dissolve the dark blue crystals. The plate was placed on a shaker for 1 h and read spectrophotometrically at 590 nm in a microtiterplate reader using the Softmaxâ program.

[2] = test system: MRSA (methicillin resistant S. aureus); assay type: cell-based
Description: (§1) The bacterial strains used were: Escherichia coli ATCC 25922 and Staphylococcus aureus ATCC 25923. All strains were stored at −70° C. The bacteria were grown in 2% Bacto Peptone water (Difco 1807-17-4). All tests were performed with bacteria in mid-logarithmic growth phase. Determination of the minimum inhibitory concentration (MIC) of the peptides for bacterial strains were performed in 1% Bacto Peptone water. A standard microdilution technique with an inoculum of 2×10^6 CFU/ml was used. All assays were performed in triplets. Since the peptides are positively charged and therefore could adhere to the plastic wells, we controlled the actual concentration of the peptides in the solution by HPLC. There was no difference between the concentration of the peptides before or after adding the solution to the plastic wells.
Table 15 below gives the antibacterial activity and toxicity data for some preferred peptides of the invention. MRSA is methicillin resistant S. aureus and MRSE is methicilin resistant S. epidermidis.

[3] = test system: Escherichia coli ATCC 25922; test: MIC (minimum inhibitory concentration) test, microdilution; assay type: cell-based
Description: as §1

[4] = test system: Staphylococcus aureus ATCC 25923; test: as above; assay type: cell-based
Description: as §1

[5] = Table 7, in µg/mL (unit assumed)

CSCC[C@H](NC(=O)[C@H](CCCNC(=N)N)NC(=O)[C@H](C)NC(=O)[C@H](CCC(N)=O)NC(=O)[C@H](Cc1c(S(=O)(=O)c2c(C)c(C)c3c(c2C)CCC(C)(C)O3)[nH]c2ccccc12)NC(=O)[C@H](CCCNC(=N)N)NC(=O)[C@H](CCCNC(=N)N)NC(=O)[C@H](CSCNC(C)=O)NC(=O)[C@H](CCCCN)NC(=O)[C@H](Cc1ccccc1)NC(=O)OCC1c2ccccc2-c2ccccc21)C(=O)N[C@@H](CCCCN)C(=O)N[C@@H](CCCCN)C(=O)N[C@@H](CC(C)C)C(=O)NCC(=O)N[C@@H](C)C(=O)O [LFB A8 FMOC PMC] (Fmoc-FKC(Acm)RR[Trp(2-Pmc)]QARMKKLGA-OH)
concentration effective in killing Meth A cells ([1]; 4 hours incubation): 50 µg/mL | concentration effective in killing Meth A cells ([1]; ½ hour incubation): higher than 100 μg/ml

CSCC[C@H](NC(=O)[C@H](CCCNC(=N)N)NC(=O)[C@H](C)NC(=O)[C@H](CCC(N)=O)NC(=O)[C@H](Cc1c[nH]c2ccccc12)NC(=O)[C@H](CCCNC(=N)N)NC(=O)[C@H](CCCNC(=N)N)NC(=O)[C@H](CSCNC(C)=O)NC(=O)[C@H](CCCCN)NC(=O)[C@H](Cc1ccccc1)NC(=O)OCC1c2ccccc2-c2ccccc21)C(=O)N[C@@H](CCCCN)C(=O)N[C@@H](CCCCN)C(=O)N[C@@H](CC(C)C)C(=O)NCC(=O)N[C@@H](C)C(=O)O [LFB A8 FMOC] (Fmoc-FKC(Acm)RRWQARMKKLGA-OH)
concentration effective in killing Meth A cells ([1]; 4 hours incubation): 250 µg/mL | concentration effective in killing Meth A cells ([1]; ½ hour incubation): 250 µg/mL

CSCC[C@H](NC(=O)[C@H](CCCNC(=N)N)NC(=O)[C@H](Cc1c[nH]c2ccccc12)NC(=O)[C@H](CCC(N)=O)NC(=O)[C@H](Cc1c[nH]c2ccccc12)NC(=O)[C@H](CCCNC(=N)N)NC(=O)[C@H](CCCNC(=N)N)NC(=O)[C@H](Cc1ccc(-c2ccccc2)cc1)NC(=O)[C@H](CCCCN)NC(=O)[C@@H](N)Cc1ccccc1)C(=O)N[C@@H](CCCCN)C(=O)N[C@@H](CCCCN)C(=O)N[C@@H](CC(C)C)C(=O)NCC(=O)N[C@@H](C)C(=O)O [LFB Bip3] (H-FK[Bip]RRWQWRMKKLGA-OH; N-terminus assumed)
MIC MRSA ([2]; Table 15): 2.5 µg/mL (≈ 1.18 µM)

CSCC[C@H](NC(=O)[C@H](CCCNC(=N)N)NC(=O)[C@H](Cc1ccc(-c2ccccc2)cc1)NC(=O)[C@H](CCC(N)=O)NC(=O)[C@H](Cc1ccc(-c2ccccc2)cc1)NC(=O)[C@H](CCCNC(=N)N)NC(=O)[C@H](CCCNC(=N)N)NC(=O)[C@H](CSCNC(C)=O)NC(=O)[C@H](CCCCN)NC(=O)[C@@H](N)Cc1ccccc1)C(=O)N[C@@H](CCCCN)C(=O)N[C@@H](CCCCN)C(=O)N[C@@H](CC(C)C)C(=O)NCC(=O)N[C@@H](C)C(=O)O [LFB Bip6,8]
MIC E. coli ([3]; Table 15): ≧5.8 μM | MIC S. aureus ([4]; Table 15): 3.0 µg/mL (≈ 1.4 µM) | MIC MRSA ([2]; Table 15): 2.5 µg/mL (≈ 1.17 µM)

CSCC[C@H](NC(=O)[C@H](CCCNC(=N)N)NC(=O)[C@H](Cc1ccc(-c2ccccc2)cc1)NC(=O)[C@H](CCC(N)=O)NC(=O)[C@H](Cc1c(S(=O)(=O)c2c(C)c(C)c3c(c2C)CCC(C)(C)O3)[nH]c2ccccc12)NC(=O)[C@H](CCCNC(=N)N)NC(=O)[C@H](CCCNC(=N)N)NC(=O)[C@H](CSCNC(C)=O)NC(=O)[C@H](CCCCN)NC(=O)[C@@H](N)Cc1ccccc1)C(=O)N[C@@H](CCCCN)C(=O)N[C@@H](CCCCN)C(=O)N[C@@H](CC(C)C)C(=O)NCC(=O)N[C@@H](C)C(=O)O [LFB Bip8 PMC]
MIC E. coli ([3]; Table 9): 25 µg/mL (≈ 10.6 µM) | MIC E. coli ([3]; Table 15): 15.0 μg/ml and 6.3 μM | MIC S. aureus ([4]; Table 9): 5 µg/mL (≈ 2.11 µM) | MIC S. aureus ([4]; Table 15): 2.5 μg/ml and 1.1 μM | MIC MRSA ([2]; Table 15): 2.5 µg/mL (≈ 1.06 µM)

C[C@@H](NC(=O)[C@H](Cc1c[nH]c2ccccc12)NC(=O)[C@H](CCCNC(=N)N)NC(=O)[C@H](Cc1c[nH]c2ccccc12)NC(=O)[C@@H](C)NC(=O)[C@@H](CCCNC(=N)N)NC(=O)[C@H](N)Cc1ccc(O)cc1)C(=O)N[C@@H](Cc1c[nH]c2ccccc12)C(=O)N[C@@H](CCCNC(=N)N)C(=O)N[C@@H](Cc1c[nH]c2ccccc12)C(=O)N[C@@H](CCCNC(=N)N)C(N)=O [SEQ ID NO: 34, tyr-arg-ala-TRP-ARG-TRP-ala-TRP-ARG-TRP-ARG-CONH2] (H-[dY][dR][dA]WRW[dA]WRWR-NH2; N-terminus assumed)
MIC E. coli ([3]; Table 16, peptides with D-amino acids): 7.5 µg/mL (≈ 4.43 µM) | MIC S. aureus ([4]; Table 16): 5 µg/mL (≈ 2.96 µM) | MIC MRSA ([2]; Table 16): 2.5 µg/mL (≈ 1.48 µM)

GIGKFLHSAKKFGKAFVGWIMNS [Mag2 W19]
MIC E. coli ([3]; ATCC 25922): 7.5 µg/mL | MIC E. coli [3, 5]: 5-10 | MIC S. aureus ([4]; ATCC 25923): 10 µg/mL | MIC S. aureus [4, 5]: 5-10 | Meth A IC 50 [1]: 9 µg/mL

GIGKFWKKARKWGRWFWRILKKG [Tosmag W6,12,15,17]
MIC E. coli ([3]; ATCC 25922): 15 µg/mL | MIC S. aureus ([4]; ATCC 25923): 10 µg/mL | Meth A IC 50 [1]: 23 µg/mL

GIGKWLKKWRKFWRAWVRIWKKG [Tosmag W5,9,13,16,20]
MIC E. coli ([3]; ATCC 25922): >50 µg/mL | MIC S. aureus ([4]; ATCC 25923): >50 µg/mL | Meth A IC 50 [1]: 23 µg/mL
